Data from PMC4155488 (Bioorganic & medicinal chemistry letters, 2014).
pIC50: −log10 of the molar value.

Legend:
hPDE4B = details: read-out: IC50 against hPDE4B; reported; cited from earlier work
TbrPDEB1 [1] = target: T1, TbrPDEB1 (Trypanosoma brucei, UniProt Q8WQX9); details: result in words; cited from earlier work
T1 sequence (Q8WQX9 1-930): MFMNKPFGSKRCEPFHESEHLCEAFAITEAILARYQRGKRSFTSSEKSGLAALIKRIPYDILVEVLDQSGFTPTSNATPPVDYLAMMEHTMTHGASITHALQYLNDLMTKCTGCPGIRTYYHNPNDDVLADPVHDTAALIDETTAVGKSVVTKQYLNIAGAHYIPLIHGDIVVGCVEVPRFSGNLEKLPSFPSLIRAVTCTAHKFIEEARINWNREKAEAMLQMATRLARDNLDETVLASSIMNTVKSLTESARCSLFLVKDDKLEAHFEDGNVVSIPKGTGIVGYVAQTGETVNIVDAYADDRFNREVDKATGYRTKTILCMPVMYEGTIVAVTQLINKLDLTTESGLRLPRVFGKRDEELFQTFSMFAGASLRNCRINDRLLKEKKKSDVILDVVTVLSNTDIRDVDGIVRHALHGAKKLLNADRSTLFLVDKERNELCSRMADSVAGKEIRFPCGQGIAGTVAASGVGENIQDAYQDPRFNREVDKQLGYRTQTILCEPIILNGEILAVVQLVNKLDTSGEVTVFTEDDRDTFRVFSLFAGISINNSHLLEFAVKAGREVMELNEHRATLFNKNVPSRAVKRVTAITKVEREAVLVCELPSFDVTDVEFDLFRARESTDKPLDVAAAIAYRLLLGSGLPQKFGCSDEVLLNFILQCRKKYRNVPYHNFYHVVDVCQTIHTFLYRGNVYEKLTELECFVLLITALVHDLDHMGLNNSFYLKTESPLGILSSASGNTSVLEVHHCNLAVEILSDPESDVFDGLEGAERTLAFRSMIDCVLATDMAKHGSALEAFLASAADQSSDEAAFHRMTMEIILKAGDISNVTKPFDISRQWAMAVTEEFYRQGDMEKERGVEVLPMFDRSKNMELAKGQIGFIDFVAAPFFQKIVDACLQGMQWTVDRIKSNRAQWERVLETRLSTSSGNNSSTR

hPDE4 = hPDE4 enzyme inhibition; type: biochemical, human; details: read-out: IC50 against hPDE4
TbrPDEB1 [2] = target: T1, TbrPDEB1; test: TbrPDEB1 enzyme inhibition; type: biochemical; details: for fold loss in potency (TbrPDEB1): relative to 12b (linker of four methylene groups)

SMILES: COc1ccc([C@]2(C#N)CC[C@@H](C(=O)O)CC2)cc1OC1CCCC1 [Compound 1, cilomilast]
- pIC50 (hPDE4B): 7.08

SMILES: O=C(Nc1c(Cl)cncc1Cl)c1ccc(OC(F)F)c(OCC2CC2)c1 [Compound 4, roflumilast]
- TbrPDEB1 activity (TbrPDEB1 [1]): completely inactive

SMILES: COc1ccc([C@]2(C#N)CC[C@@H](C(=O)O)CC2)cc1OCc1ccccc1 [Compound 7]
- pIC50 (hPDE4): 6.27

SMILES: COc1ccc([C@]2(C#N)CC[C@@H](C(=O)O)CC2)cc1OCCCCOc1ccccc1 [Compound 12b]
- times more active than 1 against TbrPDEB1 (TbrPDEB1 [2]; ratio of TbrPDEB1 IC50 versus compound 1): 17 fold

SMILES: COc1ccc([C@]2(C#N)CC[C@@H](C(=O)O)CC2)cc1OCCCOc1ccccc1 [Compound 12c]
- fold loss in potency (TbrPDEB1) (TbrPDEB1 [2]): ~ 10 fold

SMILES: COc1ccc([C@]2(C#N)CC[C@@H](C(=O)O)CC2)cc1OCCCCCOc1ccccc1 [Compound 12d]
- fold loss in potency (TbrPDEB1) (TbrPDEB1 [2]): ~ 10 fold
